SMILES strings stand for the structures.

A short description of the first data set: Antioxidant effect, ORAC-FL method (capacity to capture free radicals). Conditions: 75 mM phosphate buffer pH 7.4, 37° C., compounds tested at 4 concentrations. The text has this:
Given that in many neurodegenerative diseases neuronal death occurs due to oxidative stress, the capacity of these compounds to capture free radicals has been evaluated using the ORAC methodology.
Determination is following the ORAC-FL method of Ou et al. partially adapted by BMG LABTECH (BMG LABTECH Application note 148 (2006): ORAC Assay on the FLUOstar OPTIMA to Determine Antioxidant Capacity. http://www.bmglabtech.com/application-notes/fluorescence-intensity/orac 148.cfm). The FLUOstar Optima (BMG Labtechnologies GmbH, Offenburg, Germany) plate reader was used with an excitation filter at 485 nm excitation and 520 nm emission. 2,2′-Azobis-(amidinopropane) dihydrochloride (AAPH), (±)-6-hydroxy-2,5,7,8-tetramethylchromane-2-carboxylic acid (trolox) and fluorescein (FL) are purchased from Sigma-Aldrich. The reaction is carried out in 75 mM phosphate buffer (pH 7.4) and a final reaction volume of 200 μL. The antioxidant (25 μL) and fluorescein (150 μL; 10 nM) are placed on black 96-well plates (96F untreat, Nunc™). The mixture is pre-incubated during 30 minutes at 37° C. afterwards rapidly adding a solution of AAPH (25 μL, 240 mM), using a multi-channel pipette. The microplate is rapidly placed on the reader and fluorescence is measured every 90 sec during 90 min. The 96-well plate is agitated automatically before each reading. The compounds are tested at 4 different concentrations (10-1 μ). A blank is also placed (FL+AAPH in phosphate buffer) and as reference compound four concentrations of trolox (10-1 μM). All reactions are carried out in duplicate, and at least three different tests per compound. Data are exported to an Excel spreadsheet (Microsoft), representing absorbance versus time and subsequently the area under curve is calculated following the formula (1) AUC=f1/f0+fi/f0+ . . . +f34/f0+(f35/f0) wherein: AUC=area under curve • f0=fluorescence measured at time 0 • fi=fluorescence measured at time t
The net AUC values of each compound are determined by subtracting from the AUC value of the compound the AUC value of the blank (FL+AAPH in phosphate buffer).
The measurement of antioxidant is expressed in trolox equivalents. Relative trolox equivalents are calculated according to formula (2): […]
On to `CSc1nc2c(C)cccc2c(=O)n1-c1c(F)cccc1F` [Comp. 4, 3-(2,6-difluorophenyl)-8-methyl-2-methylthio-4-oxo-3,4-dihydroquinazoline], for which the “Antioxidant capacity, Trolox equivalents” value is 0.13 Trolox equivalents.

On to `CSc1nc2c(C)cccc2c(=O)n1-c1ccccc1Br` [Comp. 5, 3-(2-bromophenyl)-8-methyl-2-methylthio-4-oxo-3,4-dihydroquinazoline], for which the “Antioxidant capacity, Trolox equivalents” value is listed as “Not to 10 μM”.

`O=c1c2ccccc2[nH]c(=S)n1-c1c(F)cccc1F` [Comp. 2, 3-(2,6-difluorophenyl)-4-oxo-2-thioxo-1,2,3,4-tetrahydroquinazoline]: the “Antioxidant capacity, Trolox equivalents” value was “Not to 10 μM”.

Consider `S=c1[nH]c2ccccc2c(=S)n1-c1ccccc1` [Comp. 6, 3-phenyl-2,4-dithioxo-1,2,3,4-tetrahydroquinazoline], for which the “Antioxidant capacity, Trolox equivalents” value was 0.46 Trolox equivalents.

Take `Cc1cccc2c(=O)n(-c3ccccc3Br)c(=S)[nH]c12` [Comp. 3, 3-(2-bromophenyl)-8-methyl-4-oxo-2-thioxo-1,2,3,4-tetrahydroquinazoline]: the “Antioxidant capacity, Trolox equivalents” value is listed as 1.31 Trolox equivalents.

With `O=c1c2ccccc2[nH]c(=S)n1-c1ccccc1` [Comp. 1, 3-phenyl-4-oxo-2-thioxo-1,2,3,4-tetrahydroquinazoline], the “Antioxidant capacity, Trolox equivalents” value is 1.19 Trolox equivalents.

As for `CSc1nc2ccccc2c(=S)n1-c1ccccc1` [Comp. 7, 3-phenyl-2-methylthio-4-thioxo-3,4-dihydroquinazoline], the “Antioxidant capacity, Trolox equivalents” value is recorded as 0.37 Trolox equivalents.

Experiment in another data set: not given
Conditions: commercial drugs used to validate the PAMPA assay; literature value; cited from earlier work.
Consider `CN(C)CCCN1c2ccccc2Sc2ccccc21` [Promazine], for which the “Bibliography (described permeability)” value was 8.1.

For the compound `CCn1cc(C(=O)O)c(=O)c2cc(F)c(N3CCNCC3)nc21` [Enoxacine], the “Bibliography (described permeability)” value is given as 1.8.
